Laboratory results reported in patent publication US20250144179A1, “PEPTIDE HORMONE TO PREVENT OR TREAT VASOSPASM, BRAIN INJURY OR CEREBRAL EDEMA” (UNIVERSITY OF FLORIDA RESEARCH FOUNDATION, INCORPORATED, priority 2022, published 2025).

Assays:
Assay type in all cases: in vivo, mouse
[1] = test system: wild-type mice, SAH model; experiment: Brain water content (cerebral edema) after SAH; conditions: 24 hours post-SAH, adropin 450 nmol/kg i.p.
Experimental: (§1) Synthetic adropin^34-76 peptide was supplied from Bachem (Bubendorf, Switzerland) and diluted in 0.1% BSA in saline. 0.1% BSA in saline was used as vehicle control for all experiments. Adropin (450 nmol/kg) or an equivalent volume of vehicle was delivered via intraperitoneal injection 15 minutes post-SAH. For experiments ending at 24 hours post-SAH, an identical dose of adropin/vehicle was given again 12 hours later. For experiments ending 7 days post-SAH, adropin/vehicle was given again on days 1, 3 & 5 post-SAH. In the aneurysm rupture model, adropin was given at a dose of 450 nmol/kg starting 3 days before aneurysm induction (elastase injection). Adropin was given every other day until sacrifice
SAH was modeled using the anterior circulation single autologous blood injection method^25,33 with minor adjustments. Mice were anesthetized with ketamine (100 mg/kg) and xylazine (10 mg/kg) before removing hair from scalp and cleaning with serial betadine—saline washes. The tail was also prepped from the base extending 1 cm distally. Mice were then fixed into a stereotaxic frame and body temperature maintained at 37° C. […]
Brain water content was measured using the wet weight—dry weight method.^34 Twenty-four hours post-SAH, brains were removed from the skull and the olfactory lobe and hindbrain were removed from the cortex and midbrain. […]

[2] = test system: wild-type mice, SAH model; experiment: Fibrinogen immunostaining for microthrombi after SAH; conditions: 24 hours post-SAH, adropin 450 nmol/kg i.p.
Experimental: as §1
SAH was modeled using the anterior circulation single autologous blood injection method^25,33 with minor adjustments. […]
Following perfusion-fixation and overnight post-fixation in 4% PFA, brain samples were embedded in paraffin wax and cut into […] sections with a Leica RM2125 RTS microtome (Leica Microsystems, Buffalo Grove, New York) and adhered to poly-L-lysine-coated glass slides. […] Primary antibodies were detected using donkey anti-rabbit IgG AlexaFluor594, donkey anti-rabbit IgG AlexaFluor488, donkey anti-rat IgG AlexaFluor594, or donkey anti-goat IgG AlexaFluor488 (all from ThermoFisher, Waltham, Massachusetts). […] All images were analyzed by two blinded observers.

[3] = test system: murine intracranial aneurysm rupture model; experiment: Intracranial aneurysm rupture model; conditions: 450 nmol/kg every other day from 3 days before aneurysm induction, vs vehicle
Experimental: as §1
Cerebral aneurysms were induced as previously described. Briefly, mice were anesthetized with ketamine (100 mg/kg) and xylazine (10 mg/kg) before the left common carotid artery and the right renal artery were ligated with 7-0 silk suture (Ethicon Inc., Somerville, New Jersey). Carotid and renal artery ligations are hereafter referred to as ligations. One week after ligations, mice were anesthetized and 10 μL of 1.0 U/mL porcine pancreatic elastase solution (Worthington Biochemical Corp, Lakewood, New Jersey) diluted in phosphate buffered saline (PBS, Invitrogen, Carlsbad, California) was stereotactically injected into the right basal cistern at 1.2 mm rostral of bregma, 0.7 mm lateral of midline, and 5.3 mm deep to the surface of the brain. A subcutaneous osmotic pump (Alzet, Cupertino, California) placed in the right flank immediately after elastase injection and continually infused angiotensin II (Bachem, Torrence, California) at a dose of 1000 ng/kg/min. Elastase injection and osmotic pump placement are hereafter referred to as aneurysm induction. Following recovery from aneurysm induction, mice were fed a diet of 8% NaCl with 0.12% beta-aminopropionitrile (BAPN; Harlan Laboratories, Indianapolis, Indiana).
Three weeks post-aneurysm induction, mice were deeply anesthetized with ketamine/xylazine. A bilateral anterolateral thoracotomy with transverse sternotomy was made to expose the heart and great vessels. The right atrium was punctured with the tip of a 23 g needle as an outlet before the left ventricle was sequentially perfused with normal saline, 4% paraformaldehyde (PFA), and Coomassie Brilliant Blue dye in a 20% gelatin solution. Brains were carefully removed from the skull and inspected under a dissection microscope for the presence of aneurysms as evidenced by outpouching of cerebral arteries in or connected to the circle of Willis. Aneurysm rupture was identified by the presence of extravasated blood near an identified aneurysm. […]

eNOS^−/− mice, SAH model = experiment: Sensorimotor deficits (corner test) after SAH in eNOS knockout mice
Source text: All animal experiments were approved by IACUC (Institutional Animal Care and Use Committee) and performed in accordance with ARRIVE (Animal Research: Reporting of In Vivo Experiments) guidelines. All animals were 12-15-week-old females and were housed in pathogen-free housing with ad libitum food and water and 12-h light/dark cycling. Wild-type C57B1/6 mice were received from Charles River Labs (Wilmington, Mass.) and eNOS knockout mice were obtained from The Jackson Laboratory (Bar Harbor, Maine). eNOS knockout breeding pairs were genotyped prior to breeding and F1 progeny used for all experiments. The following primers were used for genotyping: eNOS knockout (Nos3^−/−): F-5′-[…]-3′, R-5′-[…]-3′. All animals underwent twice daily monitoring from institutional animal care services staff and/or investigators. Mice were randomized to treatment groups prior to surgical procedures.
as §1, with “In the aneurysm rupture model, adropin was given at a dose of 450 nmol/kg starting 3 days before aneurysm induction (elastase injection). Adropin was given every other day until sacrifice” left out

adropin (CHSRSADVDSLSESSPNSSPGPCPEKAPPPQKPSHEGSYLLQP) [Synthetic adropin^34-76 peptide from Bachem]
brain water content (cerebral edema) [1]: this effect was blunted by adropin treatment | number of microthrombi (fibrinogen immunostaining) [2]: adropin treatment completely abolished this effect | aneurysm formation [3]: did not significantly reduce aneurysm formation | aneurysm rupture [3]: did not significantly reduce aneurysm formation (FIG. 9C) or aneurysm rupture | deficit-free (symptom-free) survival [3]: extended deficit-free survival compared to vehicle | proportion of aneurysm ruptures that were symptom-producing [3]: less likely to be symptom-producing | sensorimotor deficits (corner test turn preference) (eNOS^−/− mice, SAH model): adropin also had no effect on sensorimotor deficits
